Paper doi:10.1101/2024.08.19.608619, “Discovery of potent SARS-CoV-2 nsp3 macrodomain inhibitors uncovers lack of translation to cellular antiviral response” (bioRxiv, 2024)
Read-outs that look alike come from different tables or passages of the source.

Key:
Assay in all cases: biochemical
Parameters in all cases: In vitro kinase panel profiling, per cent remaining kinase activity at 10 uM
[1] = molecular target: ALK(h) (Homo sapiens, UniProt Q9UM73); details: atp_concentration=200, read-out: % of control remaining
Description: (§1) We derisk potential for off-target activity by profiling the compound in a CEREP panel, a standard secondary pharmacology assessment, as well as a kinase panel to derisk a potential hinge-binding motif in our leads, and a PARP panel to derisk activity against human […]. Reassuringly, the compounds are selective, with the only off-targets being moderate human CHRM2 and KOR receptors activity associated with ASAP-0011198.

[2] = molecular target: T1, EphB4(h) (Homo sapiens, UniProt P54760); details: atp_concentration=10, read-out: % of control remaining
T1 sequence (P54760 1-987): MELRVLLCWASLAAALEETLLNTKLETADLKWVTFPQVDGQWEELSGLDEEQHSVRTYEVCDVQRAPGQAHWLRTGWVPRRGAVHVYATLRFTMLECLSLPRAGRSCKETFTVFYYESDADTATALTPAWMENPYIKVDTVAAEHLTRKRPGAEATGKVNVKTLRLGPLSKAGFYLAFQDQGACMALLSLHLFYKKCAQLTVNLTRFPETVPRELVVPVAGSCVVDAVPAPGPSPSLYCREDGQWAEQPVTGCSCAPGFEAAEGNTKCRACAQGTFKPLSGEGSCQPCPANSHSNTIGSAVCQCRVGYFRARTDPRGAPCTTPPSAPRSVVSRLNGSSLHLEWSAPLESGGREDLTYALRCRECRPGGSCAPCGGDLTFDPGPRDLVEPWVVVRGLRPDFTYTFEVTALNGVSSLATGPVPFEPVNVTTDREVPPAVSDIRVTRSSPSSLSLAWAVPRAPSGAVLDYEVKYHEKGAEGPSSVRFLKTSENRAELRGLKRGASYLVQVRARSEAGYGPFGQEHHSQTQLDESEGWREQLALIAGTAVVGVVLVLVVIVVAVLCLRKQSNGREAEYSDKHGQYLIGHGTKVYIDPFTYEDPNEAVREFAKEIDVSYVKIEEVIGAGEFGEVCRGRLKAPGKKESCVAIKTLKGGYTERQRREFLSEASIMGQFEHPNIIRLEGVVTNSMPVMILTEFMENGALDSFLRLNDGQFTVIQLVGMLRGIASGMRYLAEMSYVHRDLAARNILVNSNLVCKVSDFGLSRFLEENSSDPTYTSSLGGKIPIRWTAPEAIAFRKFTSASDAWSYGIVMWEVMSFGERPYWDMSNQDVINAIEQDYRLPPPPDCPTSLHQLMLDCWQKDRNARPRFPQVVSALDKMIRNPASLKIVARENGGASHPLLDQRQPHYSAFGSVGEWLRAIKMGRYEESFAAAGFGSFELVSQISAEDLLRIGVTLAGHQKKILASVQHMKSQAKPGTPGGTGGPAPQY
Description: as §1

[3] = molecular target: T2, MEK1(h) (Homo sapiens, UniProt Q02750); details: atp_concentration=10, read-out: % of control remaining
T2 construct: gene MAP2K1
Description: as §1

[4] = molecular target: T3, PI3 Kinase (p110α/p85α)(h) (Homo sapiens, UniProt P42336); details: atp_concentration=200, read-out: % of control remaining
T3 construct: gene PIK3CA
Description: as §1

[5] = molecular target: T4, PI3 Kinase (p110δ/p85α)(h) (Homo sapiens, UniProt O00329); details: atp_concentration=200, read-out: % of control remaining
T4 construct: gene PIK3CD
Description: as §1

[6] = molecular target: T5, PI3 Kinase (p120γ)(h) (Homo sapiens, UniProt P48736); details: atp_concentration=100, read-out: % of control remaining
T5 construct: gene PIK3CG
Description: as §1

[7] = molecular target: T6, Rse(h) (Homo sapiens, UniProt Q06418); details: atp_concentration=45, read-out: % of control remaining
T6 construct: gene TYRO3
T6 sequence (Q06418 1-890): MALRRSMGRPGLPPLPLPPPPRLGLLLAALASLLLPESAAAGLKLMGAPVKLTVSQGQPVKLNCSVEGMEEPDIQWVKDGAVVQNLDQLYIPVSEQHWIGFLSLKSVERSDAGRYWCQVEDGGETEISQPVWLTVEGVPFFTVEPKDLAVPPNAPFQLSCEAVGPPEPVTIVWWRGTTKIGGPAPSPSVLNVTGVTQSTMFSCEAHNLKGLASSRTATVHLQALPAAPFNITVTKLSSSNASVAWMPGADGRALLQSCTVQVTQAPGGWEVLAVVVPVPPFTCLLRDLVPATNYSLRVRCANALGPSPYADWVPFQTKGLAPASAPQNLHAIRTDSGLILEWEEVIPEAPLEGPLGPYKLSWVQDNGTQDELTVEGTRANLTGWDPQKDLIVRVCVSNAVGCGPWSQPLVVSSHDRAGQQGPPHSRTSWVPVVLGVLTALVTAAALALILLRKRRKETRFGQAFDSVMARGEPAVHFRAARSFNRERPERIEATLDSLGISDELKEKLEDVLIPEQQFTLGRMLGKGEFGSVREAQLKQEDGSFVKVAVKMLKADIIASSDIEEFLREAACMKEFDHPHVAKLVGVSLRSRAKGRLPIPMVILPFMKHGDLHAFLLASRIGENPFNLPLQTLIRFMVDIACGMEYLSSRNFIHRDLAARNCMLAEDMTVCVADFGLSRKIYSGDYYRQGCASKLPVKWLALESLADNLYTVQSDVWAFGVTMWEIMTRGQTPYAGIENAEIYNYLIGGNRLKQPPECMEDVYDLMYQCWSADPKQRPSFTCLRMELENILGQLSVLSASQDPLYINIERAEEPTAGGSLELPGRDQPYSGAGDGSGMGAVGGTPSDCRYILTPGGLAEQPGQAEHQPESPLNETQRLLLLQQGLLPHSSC
Description: as §1

[8] = molecular target: SRPK1(h) (Homo sapiens, UniProt Q96SB4); details: atp_concentration=10, read-out: % of control remaining
Description: as §1

T3 sequence (P42336 whole entry): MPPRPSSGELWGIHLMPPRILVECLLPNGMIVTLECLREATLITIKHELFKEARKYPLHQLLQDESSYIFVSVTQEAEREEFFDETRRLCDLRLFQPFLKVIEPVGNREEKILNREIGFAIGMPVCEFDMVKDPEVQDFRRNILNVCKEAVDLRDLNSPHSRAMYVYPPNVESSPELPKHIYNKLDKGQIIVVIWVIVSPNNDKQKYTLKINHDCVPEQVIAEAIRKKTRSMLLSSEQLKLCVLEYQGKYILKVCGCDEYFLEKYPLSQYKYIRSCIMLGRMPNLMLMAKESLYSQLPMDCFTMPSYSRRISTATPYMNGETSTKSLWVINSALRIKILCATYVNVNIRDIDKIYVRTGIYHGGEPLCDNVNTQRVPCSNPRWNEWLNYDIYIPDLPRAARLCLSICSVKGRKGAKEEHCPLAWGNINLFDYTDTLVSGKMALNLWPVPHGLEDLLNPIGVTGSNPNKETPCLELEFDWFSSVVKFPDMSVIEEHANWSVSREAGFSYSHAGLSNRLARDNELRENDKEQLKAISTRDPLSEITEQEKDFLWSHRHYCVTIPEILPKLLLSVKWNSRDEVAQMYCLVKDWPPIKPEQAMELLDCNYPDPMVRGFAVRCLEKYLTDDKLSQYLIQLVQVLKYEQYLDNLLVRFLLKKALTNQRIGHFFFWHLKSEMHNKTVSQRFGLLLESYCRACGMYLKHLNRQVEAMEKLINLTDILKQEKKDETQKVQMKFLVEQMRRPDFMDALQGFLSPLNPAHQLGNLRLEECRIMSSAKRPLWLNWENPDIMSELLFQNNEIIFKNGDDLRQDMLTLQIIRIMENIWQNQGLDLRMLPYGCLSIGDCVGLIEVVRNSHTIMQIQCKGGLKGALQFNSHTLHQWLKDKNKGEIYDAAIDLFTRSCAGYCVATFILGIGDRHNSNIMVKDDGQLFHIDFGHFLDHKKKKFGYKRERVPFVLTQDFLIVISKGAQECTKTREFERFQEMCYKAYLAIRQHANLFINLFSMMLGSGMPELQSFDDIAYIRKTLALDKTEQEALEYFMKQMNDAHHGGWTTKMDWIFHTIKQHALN
T3 sequence (P27986 whole entry partner): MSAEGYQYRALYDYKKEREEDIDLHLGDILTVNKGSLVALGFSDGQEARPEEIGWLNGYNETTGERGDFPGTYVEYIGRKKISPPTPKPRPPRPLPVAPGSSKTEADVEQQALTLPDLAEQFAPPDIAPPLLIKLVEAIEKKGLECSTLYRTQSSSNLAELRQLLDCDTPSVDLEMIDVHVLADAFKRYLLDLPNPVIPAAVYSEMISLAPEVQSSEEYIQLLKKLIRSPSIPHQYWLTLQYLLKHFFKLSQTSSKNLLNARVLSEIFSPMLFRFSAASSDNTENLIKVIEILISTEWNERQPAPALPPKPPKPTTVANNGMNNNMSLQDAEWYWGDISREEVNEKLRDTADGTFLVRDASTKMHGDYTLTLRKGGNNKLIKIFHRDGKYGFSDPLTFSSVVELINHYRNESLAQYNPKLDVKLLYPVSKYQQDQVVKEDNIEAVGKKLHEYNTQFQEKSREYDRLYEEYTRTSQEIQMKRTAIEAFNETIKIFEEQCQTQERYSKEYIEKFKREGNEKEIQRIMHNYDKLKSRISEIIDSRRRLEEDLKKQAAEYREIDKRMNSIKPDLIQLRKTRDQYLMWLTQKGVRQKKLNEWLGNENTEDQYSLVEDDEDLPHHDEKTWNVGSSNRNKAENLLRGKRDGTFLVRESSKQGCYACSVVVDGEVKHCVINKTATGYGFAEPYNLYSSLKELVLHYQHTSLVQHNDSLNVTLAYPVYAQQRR
Chain of SRPK1(h) (Q96SB4 whole entry): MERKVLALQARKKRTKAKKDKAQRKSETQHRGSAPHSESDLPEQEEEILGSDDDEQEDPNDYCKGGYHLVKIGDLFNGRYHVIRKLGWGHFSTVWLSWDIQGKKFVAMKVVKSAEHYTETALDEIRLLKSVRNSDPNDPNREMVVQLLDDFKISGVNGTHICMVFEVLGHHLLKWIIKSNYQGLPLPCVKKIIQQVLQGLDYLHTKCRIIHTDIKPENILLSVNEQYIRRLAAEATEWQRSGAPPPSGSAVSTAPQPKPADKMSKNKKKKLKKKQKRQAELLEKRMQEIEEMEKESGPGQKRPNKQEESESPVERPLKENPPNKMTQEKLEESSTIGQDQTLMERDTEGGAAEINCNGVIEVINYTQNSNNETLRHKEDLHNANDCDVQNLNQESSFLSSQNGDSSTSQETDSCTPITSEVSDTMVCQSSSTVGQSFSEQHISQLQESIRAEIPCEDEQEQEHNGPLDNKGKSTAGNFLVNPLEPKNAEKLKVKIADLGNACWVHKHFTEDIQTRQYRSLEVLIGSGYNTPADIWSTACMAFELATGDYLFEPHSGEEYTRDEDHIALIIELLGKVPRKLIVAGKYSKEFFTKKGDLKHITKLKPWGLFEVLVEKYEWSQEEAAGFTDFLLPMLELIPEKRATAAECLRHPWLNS
T5 sequence (P48736 whole entry): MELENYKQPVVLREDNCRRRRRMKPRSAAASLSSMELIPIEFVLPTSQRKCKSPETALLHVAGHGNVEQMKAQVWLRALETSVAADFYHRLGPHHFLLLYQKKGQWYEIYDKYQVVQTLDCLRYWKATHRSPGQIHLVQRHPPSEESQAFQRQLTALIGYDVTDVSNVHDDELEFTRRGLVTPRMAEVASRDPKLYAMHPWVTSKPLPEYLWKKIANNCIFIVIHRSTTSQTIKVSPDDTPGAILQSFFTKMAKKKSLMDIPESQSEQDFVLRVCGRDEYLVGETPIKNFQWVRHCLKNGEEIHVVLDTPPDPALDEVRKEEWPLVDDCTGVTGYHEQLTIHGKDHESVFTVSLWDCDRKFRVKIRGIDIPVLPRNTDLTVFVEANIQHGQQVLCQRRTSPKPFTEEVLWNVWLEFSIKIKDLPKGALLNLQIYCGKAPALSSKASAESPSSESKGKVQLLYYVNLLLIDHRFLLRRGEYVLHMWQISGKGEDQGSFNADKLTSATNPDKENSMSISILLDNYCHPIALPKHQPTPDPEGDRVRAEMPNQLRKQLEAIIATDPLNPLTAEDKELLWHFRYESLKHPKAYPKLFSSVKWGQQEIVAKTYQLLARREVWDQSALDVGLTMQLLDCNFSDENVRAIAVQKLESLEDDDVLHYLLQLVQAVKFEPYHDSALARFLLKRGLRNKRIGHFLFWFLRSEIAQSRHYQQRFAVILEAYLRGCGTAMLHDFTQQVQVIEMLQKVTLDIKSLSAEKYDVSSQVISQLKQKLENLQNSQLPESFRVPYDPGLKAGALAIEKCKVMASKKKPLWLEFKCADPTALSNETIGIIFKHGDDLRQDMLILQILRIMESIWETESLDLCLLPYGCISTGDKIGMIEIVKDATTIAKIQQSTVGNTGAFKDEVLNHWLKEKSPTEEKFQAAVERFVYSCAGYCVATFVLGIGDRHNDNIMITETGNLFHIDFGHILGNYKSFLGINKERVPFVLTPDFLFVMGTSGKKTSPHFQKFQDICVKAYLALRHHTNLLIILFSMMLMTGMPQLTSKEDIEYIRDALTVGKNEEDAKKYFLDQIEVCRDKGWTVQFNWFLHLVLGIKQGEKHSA
T2 sequence (Q02750 whole entry): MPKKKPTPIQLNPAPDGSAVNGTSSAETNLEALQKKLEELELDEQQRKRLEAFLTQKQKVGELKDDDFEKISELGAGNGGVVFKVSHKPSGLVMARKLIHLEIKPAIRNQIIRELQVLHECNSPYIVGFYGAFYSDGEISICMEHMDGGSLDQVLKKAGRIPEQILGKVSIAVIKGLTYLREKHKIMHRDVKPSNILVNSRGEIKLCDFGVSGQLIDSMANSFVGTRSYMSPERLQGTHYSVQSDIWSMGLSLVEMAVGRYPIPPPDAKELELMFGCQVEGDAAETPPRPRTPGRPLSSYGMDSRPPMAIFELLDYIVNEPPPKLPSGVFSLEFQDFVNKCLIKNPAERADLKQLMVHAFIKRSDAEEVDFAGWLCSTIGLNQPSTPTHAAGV
T4 sequence (O00329 whole entry): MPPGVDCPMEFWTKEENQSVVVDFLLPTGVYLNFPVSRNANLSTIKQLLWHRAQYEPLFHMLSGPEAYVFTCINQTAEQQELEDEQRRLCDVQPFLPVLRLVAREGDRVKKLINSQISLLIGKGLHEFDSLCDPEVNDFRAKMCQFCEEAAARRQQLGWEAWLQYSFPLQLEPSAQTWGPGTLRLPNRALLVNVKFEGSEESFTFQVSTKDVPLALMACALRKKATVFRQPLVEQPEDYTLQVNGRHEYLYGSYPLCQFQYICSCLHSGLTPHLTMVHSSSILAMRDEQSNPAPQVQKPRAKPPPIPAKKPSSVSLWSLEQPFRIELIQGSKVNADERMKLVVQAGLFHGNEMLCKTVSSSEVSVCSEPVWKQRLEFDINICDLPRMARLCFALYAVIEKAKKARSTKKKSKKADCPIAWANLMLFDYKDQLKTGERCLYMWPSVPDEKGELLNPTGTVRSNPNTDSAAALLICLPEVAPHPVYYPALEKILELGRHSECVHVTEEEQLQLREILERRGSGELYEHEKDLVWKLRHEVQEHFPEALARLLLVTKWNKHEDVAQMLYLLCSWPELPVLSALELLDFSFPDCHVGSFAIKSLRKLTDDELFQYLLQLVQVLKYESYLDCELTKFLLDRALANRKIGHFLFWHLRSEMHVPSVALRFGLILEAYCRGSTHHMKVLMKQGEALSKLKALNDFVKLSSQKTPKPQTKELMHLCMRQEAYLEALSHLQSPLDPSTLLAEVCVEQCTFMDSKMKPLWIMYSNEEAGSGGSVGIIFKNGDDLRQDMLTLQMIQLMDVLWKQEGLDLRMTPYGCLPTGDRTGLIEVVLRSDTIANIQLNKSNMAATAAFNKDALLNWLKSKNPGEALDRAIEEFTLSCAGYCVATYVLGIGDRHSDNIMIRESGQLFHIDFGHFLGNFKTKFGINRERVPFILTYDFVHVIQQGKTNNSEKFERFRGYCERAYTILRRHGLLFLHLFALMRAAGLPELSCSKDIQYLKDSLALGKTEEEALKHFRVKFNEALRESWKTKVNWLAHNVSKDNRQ
T4 sequence (P27986 whole entry partner): as the sequence (P27986 whole entry partner) above

For `CC(C)C(Nc1ncnc2[nH]ccc12)c1ccc2c(c1)S(=O)(=O)CCC2` (stereo not drawn) [ASAP-0008327], the remaining activity at 10 µM ([1]; batch_name=ASAP-0008327-001) was 93%, the remaining activity at 10 µM ([2]; batch_name=ASAP-0008327-001) was 91% and the remaining activity at 10 µM ([3]; batch_name=ASAP-0008327-001) was 97%. It also gave a remaining activity at 10 µM ([4]; batch_name=ASAP-0008327-001) of 104%, a remaining activity at 10 µM ([5]; batch_name=ASAP-0008327-001) of 101% and a remaining activity at 10 µM ([6]; batch_name=ASAP-0008327-001) of 103%. The remaining activity at 10 µM ([7]; batch_name=ASAP-0008327-001) was 115% and the remaining activity at 10 µM ([8]; batch_name=ASAP-0008327-001) was 105%.

With `COc1ccc([C@@H](Cc2nnn[nH]2)NC(=O)c2ncnc3[nH]ccc23)cc1` [ASAP-0008340] the remaining activity at 10 µM ([1]; batch_name=ASAP-0008340-001) was 95%, the remaining activity at 10 µM ([2]; batch_name=ASAP-0008340-001) was 88% and the remaining activity at 10 µM ([3]; batch_name=ASAP-0008340-001) was 92%. The remaining activity at 10 µM ([4]; batch_name=ASAP-0008340-001) was 101%, the remaining activity at 10 µM ([5]; batch_name=ASAP-0008340-001) was 99% and the remaining activity at 10 µM ([6]; batch_name=ASAP-0008340-001) was 89%. For the same compound, the remaining activity at 10 µM ([7]; batch_name=ASAP-0008340-001) was 88% and the remaining activity at 10 µM ([8]; batch_name=ASAP-0008340-001) was 102%.

`CC(C)[C@@H](Nc1ncnc2[nH]c(-c3cnn(C)c3C#N)cc12)c1ccc2c(n1)OCCO2` [ASAP-0008418] showed a remaining activity at 10 µM ([1]; batch_name=ASAP-0008418-001) of 103%, a remaining activity at 10 µM ([2]; batch_name=ASAP-0008418-001) of 75% and a remaining activity at 10 µM ([3]; batch_name=ASAP-0008418-001) of 99%. The remaining activity at 10 µM ([4]; batch_name=ASAP-0008418-001) was 49%, the remaining activity at 10 µM ([5]; batch_name=ASAP-0008418-001) was 55% and the remaining activity at 10 µM ([6]; batch_name=ASAP-0008418-001) was 63%. It also gave a remaining activity at 10 µM ([7]; batch_name=ASAP-0008418-001) of 116% and a remaining activity at 10 µM ([8]; batch_name=ASAP-0008418-001) of 92%.

`CC(C)[C@H](Nc1ncnc2[nH]ccc12)c1ccc2c(c1)S(=O)(=O)CCC2` [ASAP-0008674] gave a remaining activity at 10 µM ([1]; batch_name=ASAP-0008674-002) of 100%, a remaining activity at 10 µM ([2]; batch_name=ASAP-0008674-002) of 86% and a remaining activity at 10 µM ([3]; batch_name=ASAP-0008674-002) of 94%. For the same compound, the remaining activity at 10 µM ([4]; batch_name=ASAP-0008674-002) was 94%, the remaining activity at 10 µM ([5]; batch_name=ASAP-0008674-002) was 99% and the remaining activity at 10 µM ([6]; batch_name=ASAP-0008674-002) was 98%. It also gave a remaining activity at 10 µM ([7]; batch_name=ASAP-0008674-002) of 86% and a remaining activity at 10 µM ([8]; batch_name=ASAP-0008674-002) of 100%.

`CC(C)[C@H](Nc1ncnc2[nH]c(-c3cnn(C)c3C#N)cc12)c1ccc2c(n1)OCCO2` [ASAP-0010715] showed a remaining activity at 10 µM ([1]; batch_name=ASAP-0010715-002) of 116%, a remaining activity at 10 µM ([2]; batch_name=ASAP-0010715-002) of 89% and a remaining activity at 10 µM ([3]; batch_name=ASAP-0010715-002) of 97%. It also gave a remaining activity at 10 µM ([4]; batch_name=ASAP-0010715-002) of 70%, a remaining activity at 10 µM ([5]; batch_name=ASAP-0010715-002) of 66% and a remaining activity at 10 µM ([6]; batch_name=ASAP-0010715-002) of 80%. For the same compound, the remaining activity at 10 µM ([7]; batch_name=ASAP-0010715-002) was 105% and the remaining activity at 10 µM ([8]; batch_name=ASAP-0010715-002) was 111%.

`CC(C)[C@@H](Nc1ncnc2[nH]c(-c3cnn(C)c3C#N)cc12)c1ccc2c(n1)OCCO2` [ASAP-0010716] gave a remaining activity at 10 µM ([1]; batch_name=ASAP-0010716-002) of 106%, a remaining activity at 10 µM ([2]; batch_name=ASAP-0010716-002) of 91% and a remaining activity at 10 µM ([3]; batch_name=ASAP-0010716-002) of 103%. It also gave a remaining activity at 10 µM ([4]; batch_name=ASAP-0010716-002) of 55%, a remaining activity at 10 µM ([5]; batch_name=ASAP-0010716-002) of 61% and a remaining activity at 10 µM ([6]; batch_name=ASAP-0010716-002) of 78%. The remaining activity at 10 µM ([7]; batch_name=ASAP-0010716-002) was 107% and the remaining activity at 10 µM ([8]; batch_name=ASAP-0010716-002) was 104%.

In the case of `CNCc1cc(-c2cc3c(N[C@@H](c4ccc5c(c4)S(=O)(=O)CCC5)C(C)C)ncnc3[nH]2)co1` [ASAP-0011176], the remaining activity at 10 µM ([1]; batch_name=ASAP-0011176-002) is reported as 99%, the remaining activity at 10 µM ([2]; batch_name=ASAP-0011176-002) is reported as 92% and the remaining activity at 10 µM ([3]; batch_name=ASAP-0011176-002) is reported as 97%. It also gave a remaining activity at 10 µM ([4]; batch_name=ASAP-0011176-002) of 99%, a remaining activity at 10 µM ([5]; batch_name=ASAP-0011176-002) of 80% and a remaining activity at 10 µM ([6]; batch_name=ASAP-0011176-002) of 96%. The remaining activity at 10 µM ([7]; batch_name=ASAP-0011176-002) was 81% and the remaining activity at 10 µM ([8]; batch_name=ASAP-0011176-002) was 101%.

Compound `CC(C)C(Nc1ncnc2[nH]c(C(=O)NC3CCN(C)C3)cc12)c1ccc2c(c1)S(=O)(=O)CCC2` (stereo not drawn) [ASAP-0011198] has a remaining activity at 10 µM ([1]; batch_name=ASAP-0011198-002) of 106%, a remaining activity at 10 µM ([2]; batch_name=ASAP-0011198-002) of 86% and a remaining activity at 10 µM ([3]; batch_name=ASAP-0011198-002) of 107%. It also gave a remaining activity at 10 µM ([4]; batch_name=ASAP-0011198-002) of 104%, a remaining activity at 10 µM ([5]; batch_name=ASAP-0011198-002) of 99% and a remaining activity at 10 µM ([6]; batch_name=ASAP-0011198-002) of 97%. It also gave a remaining activity at 10 µM ([7]; batch_name=ASAP-0011198-002) of 107% and a remaining activity at 10 µM ([8]; batch_name=ASAP-0011198-002) of 108%.

With `Cn1ncc(-c2cc3c(N[C@@H](c4ccc5c(n4)OCCO5)C(C)(C)C)ncnc3[nH]2)c1C#N` [ASAP-0011221] the remaining activity at 10 µM ([1]; batch_name=ASAP-0011221-002) was 117%, the remaining activity at 10 µM ([2]; batch_name=ASAP-0011221-002) was 115% and the remaining activity at 10 µM ([3]; batch_name=ASAP-0011221-002) was 98%. It also gave a remaining activity at 10 µM ([4]; batch_name=ASAP-0011221-002) of 75%, a remaining activity at 10 µM ([5]; batch_name=ASAP-0011221-002) of 73% and a remaining activity at 10 µM ([6]; batch_name=ASAP-0011221-002) of 88%. The remaining activity at 10 µM ([7]; batch_name=ASAP-0011221-002) was 110% and the remaining activity at 10 µM ([8]; batch_name=ASAP-0011221-002) was 117%.
